# Test results from PubChem BioAssay AID2744 (NMMLSC, 2010).
# The source made the active and inactive calls.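 Rule for the calls: active = fitted half-maximal concentration for changing reporter fluorescence at or below a set limit; inactive = the rest.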
# Target: Citrate synthase, peroxisomal (Saccharomyces cerevisiae (strain ATCC 204508 / S288c)) (UniProt P08679)
# Assay: CIT2-GFP expression modulators in yeast, dose response, flow cytometry, MLPCN hits (AID 2744)
# Settings: S. cerevisiae CIT2-GFP strain, 3 h; for GFP fluorescence, higher = induction: at 33 µM (top of the series); for EC50: flow cytometry fluorescence
# Sequence of Citrate synthase, peroxisomal (Saccharomyces cerevisiae (strain ATCC 204508 / S288c)) (P08679 whole entry, looked up): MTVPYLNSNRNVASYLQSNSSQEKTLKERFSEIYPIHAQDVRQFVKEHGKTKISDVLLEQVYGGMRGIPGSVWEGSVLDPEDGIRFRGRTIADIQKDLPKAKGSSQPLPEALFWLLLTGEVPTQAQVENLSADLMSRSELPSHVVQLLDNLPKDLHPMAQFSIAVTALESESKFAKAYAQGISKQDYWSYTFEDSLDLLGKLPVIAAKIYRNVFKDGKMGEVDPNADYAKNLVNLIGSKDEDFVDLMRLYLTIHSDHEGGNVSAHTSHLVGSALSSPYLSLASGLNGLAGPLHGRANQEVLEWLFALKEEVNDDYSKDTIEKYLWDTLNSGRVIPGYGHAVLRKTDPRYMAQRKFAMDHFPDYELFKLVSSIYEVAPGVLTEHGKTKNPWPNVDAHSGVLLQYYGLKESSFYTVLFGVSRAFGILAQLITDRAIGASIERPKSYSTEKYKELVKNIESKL
Compound,"GFP fluorescence, higher = induction",EC50
Cc1ccc(-c2nc(C)sc2CC(=O)Nc2nnc(C)s2)cc1,inactive,–
CCCc1nnc(NC(=O)c2c(O)c3cccc4c3n(c2=O)CCC4)s1,inactive,–
C[C@@]12C(=O)OC(=O)[C@]1(C)C1CCC2O1,inactive,–
CCN(CC(=O)NC(C)(C)C)C(=O)COc1c(Cl)cc(Cl)c2ccc(C)nc12,inactive,–
COc1ccc2c(c1)S/C(=C\C(=O)c1ccncc1)N2C,inactive,–
CCC(=O)Oc1oc(-c2ccccc2)nc1C=Nc1ccc(C)cc1,inactive,–
COc1ccc(/C=C2/C(=O)ON=C2c2ccccc2)cc1OC,inactive,–
CCN1/C(=C/C=C/c2sc3ccccc3[n+]2CC)Sc2ccccc21,inactive,–
Cc1ccnc(N2C(=O)c3cccc4c([N+](=O)[O-])ccc(c34)C2=O)c1,inactive,–
COc1cccc(N=Cc2nc(-c3ccccc3)oc2OC(C)=O)c1,inactive,–
O=C(CSC1=NS(=O)(=O)c2ccccc21)Nc1ccccc1,inactive,–
CCC(=O)Nc1ccc(NC(=O)c2cc3ccccc3o2)c(OC)c1,inactive,–
O=[N+]([O-])c1ccc(O)c2ncccc12,inactive,–
O=C(/C=C/c1ccccn1)c1cc(Br)ccc1O,inactive,–
[O-][n+]1cccc2c(Br)cc(Br)c(O)c21,inactive,–
Cc1ccc(-c2nc(N)c3c(-c4ccc(C)cc4)nn(C(C)(C)C)c3n2)cc1,inactive,–
CCN(CC)C(=O)Oc1ccnc2cc(Cl)ccc12,inactive,–
CC(=O)Nc1ncnc2c1c(-c1ccc(Cl)cc1)nn2C(C)(C)C,inactive,–
CCOc1ccc(N/N=C(/C#N)C(N)=O)cc1,inactive,–
CC(C)[C@@]1(c2ccccc2)ON(c2ccccc2C(F)(F)F)C1=O,inactive,–
Cc1cc2ccccn2c1C(=O)c1ccc([N+](=O)[O-])o1,inactive,–
O=C(Nc1ccc(NC(=O)c2cc3ccccc3o2)cc1)c1ccc2c(c1)OCCO2,inactive,–
Cc1c(NC2=C(Cl)C(=O)N(c3ccccc3)C2=O)c(=O)n(-c2ccccc2)n1C,inactive,–
O=C(/C=C/Sc1ncn[nH]1)c1ccc(Cl)cc1,inactive,–

Compound,"GFP fluorescence, higher = induction",EC50
N/C(Cc1ccc(Cl)cc1)=N\OC(=O)c1cccc2ccccc12,–,1.35 µM
Cc1ccc(S(=O)(=O)ON2C(=O)c3ccccc3C2=O)c(C)c1,inactive,–
COc1ccc(C(=O)NNC(=S)NC(=O)/C=C/c2cccs2)cc1,inactive,–
O=C(COc1c(Br)cc(Br)c2cccnc12)N1CCc2ccccc2C1,inactive,–
COC(=O)CCCC1=CC2=CC(=O)C(C)(OC(=O)CCc3ccccc3)C(=O)C2=CO1 (stereo unspecified),inactive,–
COc1ccc(/C=C/C(=O)C2C(=O)C=C(C)OC2=O)cc1O (stereo unspecified),inactive,–
O=C1N(c2ccccc2C(F)(F)F)O[C@]1(c1ccccc1)C1CCCC1,inactive,–
CCN(CC)c1ccc(/C=C2\C(=O)c3ccc(C(=O)O)cc3C2=O)cc1,inactive,–
CCn1c(/C=C/c2ccc([N+](=O)[O-])o2)nc2ccccc2c1=O,inactive,–
Cc1ccc(NN2C(=O)C=C(c3ccc(Cl)cc3)C2=O)cc1,inactive,–
CCCc1cc(NCc2ccccn2)n2nc(C)c(-c3ccccc3)c2n1,inactive,–
O=[N+]([O-])c1cc(CN2CCN(c3ccccc3)CC2)c(O)c2ncccc12,inactive,–
CCCCCCCCC/C(=N\O)c1ccccn1,inactive,–
CC(=O)N(\C=C/C=C/C=C1\Sc2ccccc2C1=O)c1ccccc1,inactive,–
O=C1Oc2ccccc2C(=O)/C1=C/c1ccccc1O,inactive,–
COc1ccc(N=Cc2nc(-c3ccccc3)oc2OC(=O)c2ccccc2)cc1,inactive,–
C#CCOc1c(Br)cc(/C=C2/C(=O)ON=C2C)cc1OC,inactive,–
O=C1C=CC(=O)N1c1ccc(N2CCCCC2)cc1,inactive,–
Oc1c(Br)cc(Br)cc1C=Nc1ccc2c(c1)OCO2,inactive,–
CCOC(=O)CSC1=NC(=O)/C(=C\c2ccc(Cl)cc2)S1,inactive,–
Oc1ccc2ccccc2c1N=Nc1nccs1,inactive,–
O=C(C#Cc1ccccc1)c1ccco1,inactive,–
Nc1c(C(=O)c2cccs2)sc2nsc(SCCN3CCCCC3)c12,inactive,–
COc1ccc([C@@]2(C(C)C)ON(c3ccccc3C(F)(F)F)C2=O)cc1,inactive,–

Compound,"GFP fluorescence, higher = induction",EC50
c1ccc(-c2cccc(-c3ccccn3)n2)nc1,inactive,–
COC(=O)/C(=C/c1c[nH]c2ccccc12)[N+](=O)[O-],inactive,–
O=C1C2C3C=CC(CO)(O3)C2C(=O)N1c1ccccc1-c1ccccc1 (stereo unspecified),inactive,–
CN(C)/C=C/C(=O)c1ccc(-c2ccc(Cl)cc2Cl)o1,inactive,–
Cc1cc(C(=O)Nc2nc(-c3ccccn3)cs2)ccc1[N+](=O)[O-],inactive,–
Cc1[nH]c2ccccc2c1C(=O)COC(=O)c1ccc([N+](=O)[O-])s1,inactive,–
O=C(COc1ccccc1)N1CCN(c2ncnc3c2cnn3-c2ccccc2)CC1,inactive,–
Cc1[nH][nH]c(=O)c1C(c1ccc(-c2ccc(Cl)c(Cl)c2)o1)c1c(C)[nH][nH]c1=O,inactive,–
O=C1c2ccccc2C(=O)C2OC12 (stereo unspecified),inactive,–
COc1cc(NC(=O)c2cccc(C)c2)ccc1NC(=O)c1cc2ccccc2o1,inactive,–
CNc1nc(N)c([N+](=O)[O-])c(Nc2cccc(F)c2)n1,–,4.36 µM
CCCCNc1c2c3c(cccc3n(C)c1=O)C(=O)c1ccccc1-2,inactive,–
Cc1ccc(C(=O)O/N=C(\N)Cc2cccs2)c(Cl)c1,inactive,–
COC(=O)c1cc(N2C(=O)C3C(C2=O)C2(C)C=CC3(C)O2)ccc1Cl (stereo unspecified),inactive,–
Cc1ccc(NC(=O)c2cc(N3C(=O)C=CC3=O)ccc2Cl)cc1C,inactive,–
O=C(C#Cc1ccccc1)c1cccc([N+](=O)[O-])c1,inactive,–
CCOC(=O)C1=C(O)c2ccccc2C(=O)/C1=C\c1ccc(C)cc1,inactive,–
Cc1cc(NC(=O)c2cccnc2Cl)ccc1NC(=O)c1cc2ccccc2o1,inactive,–
COc1ccc(NC(=O)/C(Cl)=C(/Cl)S(=O)Cc2ccccc2)cn1 (stereo unspecified),inactive,–
C[n+]1ccc(/C=C/c2c[nH]c3ccccc23)cc1,inactive,–
CC(=O)Oc1oc(-c2ccccc2)nc1C=Nc1ccccc1,inactive,–
O=C1C(Cl)=C(NCCc2ccccc2)C(=O)N1CCc1ccccc1,inactive,–
COc1ccc(N2C(=O)/C(=C/c3cccs3)C(=O)NC2=S)cc1,inactive,–
O=C1N(c2ccccc2C(F)(F)F)O[C@]1(c1ccccc1)C1CCCCC1,inactive,–

Compound,"GFP fluorescence, higher = induction",EC50
COc1cc(CNC(=O)CCCCCCC(C)C)ccc1O,inactive,–
COc1ccc(N=Cc2nc(-c3ccccc3)oc2OC(C)=O)cc1,inactive,–
CC1=C(C)/C(=N\OS(=O)(=O)c2ccc(C)cc2)C=CC1=O,inactive,–
O=C(COc1ccccc1)NNC(=S)NC(=O)c1ccccc1,inactive,–
O=C1NC(=O)N(Cc2ccco2)C(=O)/C1=C/c1ccc(-c2cccc([N+](=O)[O-])c2)o1,inactive,–
CC(C)(C)n1nc(-c2ccc(Cl)cc2)c2c(N)ncnc21,inactive,–
COc1cc(N2C(=O)C=CC2=O)c(OC)cc1Cl,inactive,–
CCOC(=O)CSC1=NC(=O)/C(=C/c2ccc(OC)cc2)S1,inactive,–
CCOC(=O)c1cc(-c2ccc(/C=C3/C(=O)NC(=O)C(C#N)=C3C)o2)ccc1Cl,inactive,–
Cc1ccc(/C=C2\SC(=S)N(Cc3ccccc3)C2=O)o1,inactive,–
O=[N+]([O-])c1cc(S(=O)(=O)C(F)(F)F)ccc1Sc1nc2ccccc2s1,inactive,–
Cc1ccc(N=c2ssnc2Cl)cc1,inactive,–
C/C(=N\NC(=O)c1cc2ccccc2cc1O)c1ccccn1,inactive,–
N#C/C(=C\c1ccccn1)c1nc2ccccc2s1,inactive,–
COc1ccc(N/N=C(\C#N)C(N)=O)cc1,inactive,–
CC(C)CC(=O)NC(=S)Nc1nc(-c2ccccc2)cs1,inactive,–
Cc1ccc(O)c(N=Nc2nccs2)c1,–,11.3 µM
COc1cc(/C=C/c2ccc3c(Br)cc(Br)c(O)c3n2)ccc1O,inactive,–
C=CCN1C(=O)/C(=C/c2cccs2)C(=O)NC1=S,inactive,–
CC(=O)Oc1ccc(/C=c2\sc3ncnn3c2=O)cc1,inactive,–
Cc1ccc(S(=O)(=O)c2ccc([N+](=O)[O-])cn2)cc1,inactive,–
CC(C)C(=O)NC(c1cccs1)c1cc([N+](=O)[O-])c2cccnc2c1O (stereo unspecified),inactive,–
COc1cc(/C=C2/C(=O)c3cccc([N+](=O)[O-])c3C2=O)c(Br)cc1O,inactive,–
CCCCC1OC23CCCCC2C(C#N)(C(=N)O3)C1(C#N)C#N (stereo unspecified),inactive,–
